The subject of assay [1] is Plasmodium yoelii nigeriensis. Put plainly: Antimalarial activity against multidrug-resistant Plasmodium yoelii nigeriensis infected mouse assessed as protection at 12 mg/kg for 4 days. The class given is functional.
In assay [2] the test system is Plasmodium yoelii nigeriensis. Put plainly: Antimalarial activity against multidrug-resistant Plasmodium yoelii nigeriensis infected mouse assessed as protection at 24 mg/kg for 4 days. The class given is functional.
The subject of assay [3] is Plasmodium falciparum. Put plainly: Antimalarial activity against Plasmodium falciparum by Heme-HRP assay. It is filed as functional, organism-based.
Assay [4] relates to Plasmodium falciparum. Put plainly: Antimalarial activity against Plasmodium falciparum by culture assay. It is filed as functional, organism-based.
Assay [5] relates to Plasmodium falciparum. Put plainly: Antimalarial activity Plasmodium falciparum NF54. The class given is functional, organism-based.

The text below walks through data of ChEMBL document CHEMBL3351854, “A comprehensive review on synthetic approach for antimalarial agents” (Eur J Med Chem, 2014).

On to `C[C@@H]1[C@H]2CC[C@@H](C)[C@@H]3CC[C@]4(C)OO[C@@]23[C@H](C[C@H]1OC(=O)C1c2ccccc2-c2ccccc21)O4`, for which the Activity is 80% in assay [1] and 100% in assay [2]. As to `Fc1ccc(CNCCOCCOCCNc2ccnc3cc(Cl)ccc23)c(F)c1`, the IC50 is 60000 nM in the assay on Plasmodium falciparum [3] and 48 nM in the assay on Plasmodium falciparum [4].

`CCOC(=O)CC1CCC2(OCCCC2CC(=O)OCC)OO1` (stereo not given) had an IC50 with Plasmodium falciparum [5] of 160 nM.
